A word on the IC50: it is the midpoint of a concentration-inhibition curve. The low end stands for higher potency, the high end for lower potency. Usually EC50 stands for the concentration that produces a half-maximal response. Low readings indicate higher potency in that assay, high ones lower potency in that assay.

The values below come from ChEMBL document CHEMBL1134740, “3,28-Di-O-(dimethylsuccinyl)-betulin isomers as anti-HIV agents” (Bioorg Med Chem Lett, 2001).

Series [1] in a line: Therapeutic Index (IC50/EC50) of the compound.
In series [2] the test system is H9. Kind of series: Evaluated for the anti-HIV activity against HIV-1 replication in mock-infected H9 cells. To be noted: Homo sapiens. It is filed as functional, cell-based.
In series [3] the test system is H9. In words: Evaluated for the anti-HIV activity against HIV-1 replication in H9 lymphocyte cells. It is filed as functional, cell-based. To be noted: Homo sapiens.
Series [4] has as its system H9. In words: Evaluated for the anti-HIV activity against HIV-1 replication in H9 lymphocyte cells; Toxic at all concentrations. It is filed as functional, cell-based. To be noted: Homo sapiens.
The nature of series [5]: Therapeutic Index (IC50/EC50) of the compound; Toxic at all concentrations.

Each structure is given as a SMILES string.

Consider `C=C(C)[C@@H]1CC[C@]2(COC(=O)CC(C)(C)C(=O)O)CC[C@]3(C)[C@H](CC[C@@H]4[C@@]5(C)CC[C@H](OC(=O)C(C)(C)CC(=O)O)C(C)(C)[C@@H]5CC[C@]43C)[C@@H]12`, for which the selectivity ratio in series [1] stood at 96.5. Moreover, 38.6 µM corresponded to half-maximal inhibition in series [2] (IC50). In series [3], this compound had an EC50 of 0.4 µM.
As for `C=C(C)[C@@H]1CC[C@]2(COC(=O)C(C)(C)CC(=O)O)CC[C@]3(C)[C@H](CC[C@@H]4[C@@]5(C)CC[C@H](OC(=O)C(C)(C)CC(=O)O)C(C)(C)[C@@H]5CC[C@]43C)[C@@H]12`, the Activity entry in series [4] was “Toxic at all concentrations”. In series [5], the Ratio result was “Toxic at all concentrations”.
With `C=C(C)[C@@H]1CC[C@]2(COC(=O)C(C)(C)CC(=O)O)CC[C@]3(C)[C@H](CC[C@@H]4[C@@]5(C)CC[C@H](OC(=O)CC(C)(C)C(=O)O)C(C)(C)[C@@H]5CC[C@]43C)[C@@H]12`, the selectivity ratio in series [1] was 42400. Further, in series [2], 36.9 µM corresponded to half-maximal inhibition (IC50). The compound also returned an EC50 in series [3] of 0.00087 µM.
Consider `C=C(C)[C@@H]1CC[C@]2(COC(=O)CC(C)(C)CC(=O)O)CC[C@]3(C)[C@H](CC[C@@H]4[C@@]5(C)CC[C@H](OC(=O)CC(C)(C)CC(=O)O)C(C)(C)[C@@H]5CC[C@]43C)[C@@H]12`, for which, in series [1], the selectivity ratio came out at 21500.
Consider `C=C(C)[C@@H]1CC[C@]2(COC(=O)CC(C)(C)C(=O)O)CC[C@]3(C)[C@H](CC[C@@H]4[C@@]5(C)CC[C@H](OC(=O)CC(C)(C)C(=O)O)C(C)(C)[C@@H]5CC[C@]43C)[C@@H]12`, for which the selectivity ratio in series [1] came out at 1680. This compound had an IC50 in series [2] of 33.6 µM. This compound registered an EC50 in series [3] of 0.02 µM.
Regarding `C=C(C)[C@@H]1CC[C@]2(C(=O)O)CC[C@]3(C)[C@H](CC[C@@H]4[C@@]5(C)CC[C@H](OC(=O)CC(C)(C)C(=O)O)C(C)(C)[C@@H]5CC[C@]43C)[C@@H]12` [BEVIRIMAT], the selectivity ratio in series [1] was > 20000. Also, in series [3], the EC50 was < 0.00035 µM.
Take `C=C(C)[C@@H]1CC[C@]2(COC(=O)CC(C)(C)C(=O)O)CC[C@]3(C)[C@H](CC[C@@H]4[C@@]5(C)CC[C@H](O)C(C)(C)[C@@H]5CC[C@]43C)[C@@H]12`: in series [1], the selectivity ratio is > 207. Moreover, the IC50 in series [2] stood at 37.4 µM. Further, the EC50 in series [3] was < 0.18 µM.
Regarding `C=C(C)[C@@H]1CC[C@]2(C(=O)O)CC[C@]3(C)[C@H](CC[C@@H]4[C@@]5(C)CC[C@H](OC(=O)COCC(=O)O)C(C)(C)[C@@H]5CC[C@]43C)[C@@H]12`, the selectivity ratio in series [1] turned out to be 1170.
As for `C=C(C)[C@@H]1CC[C@]2(COC(=O)C(C)(C)CC(=O)O)CC[C@]3(C)[C@H](CC[C@@H]4[C@@]5(C)CC[C@H](O)C(C)(C)[C@@H]5CC[C@]43C)[C@@H]12`, in series [1], the selectivity ratio was 159. In series [2], this compound gave an IC50 of 28.6 µM. In series [3], this compound had an EC50 of 0.18 µM.
